{"source": "patent US20130115671A1", "about": "“ENZYMES FROM CONIDIOBOLUS BREFELDIANUS AND PROCESS FOR PREPARATION THEREOF” (Council of Scientific and Industrial Research, priority 2010, published 2013)", "key": {"[1]": {"tested_on": "protease secreted by Conidiobolus brefeldianus MTCC 5185", "experiment": "Effect of metals on protease activity", "type": "biochemical", "conditions": "metal 5 mM in assay mixture, crude protease"}, "[2]": {"tested_on": "protease from Conidiobolus brefeldianus MTCC 5185", "description": "This example illustrates the stability of the protease in presence of salts. […] Aliquots were removed at regular intervals of 30 min and residual activity was estimated at 50° C., pH 9."}, "[3]": {"tested_on": "protease of Conidiobolus brefeldianus MTCC 5185", "experiment": "Effect of inhibitors on protease activity (PMSF, EDTA, iodoacetate, DMSO)", "type": "biochemical", "excerpt": "This example illustrates the effect of inhibitors on protease activity of Conidiobolus brefeldianus MTCC 5185. Following inhibitors were studied: phenylmethylsulfonyl fluoride (PMSF), ethylene-diaminetetraacetic acid (EDTA), iodoacetic acid, and dimeth ylsulphoxide (DMSO). The crude culture filtrate grown as described in example 3 was concentrated by ultra-filtration on PM-10 and YM-3 membranes as described in example 27 and used for inhibition studies. Both the protease preparations were pre-incubated in 100 mM Tris-HCl buffer (pH 8.0) with each inhibitor for 1 h and the residual protease activity was measured at 50° C., pH 9.0. Protease without inhibitor served as control."}, "[4]": {"tested_on": "protease from Conidiobolus brefeldianus MTCC 5185", "experiment": "Stability of protease at 50° C. in presence of trehalose and sorbitol", "type": "physicochemical", "set-up": "unit not given here", "excerpt": "Stability increased with increasing concentration of trehalose and sorbitol."}, "[5]": {"tested_on": "protease from Conidiobolus brefeldianus MTCC 5185", "experiment": "Stability of protease at 50° C. in presence of sugar alcohols", "type": "physicochemical", "set-up": "unit not given here", "description": "Ultrafiltered protease as described in example 27 was incubated at 50° C. in presence of glycerol, mannitol, sorbitol and xylitol at 20% concentration up to 3 h. Aliquots were removed at regular intervals of 30 min and residual activity was estimated at 50° C., pH 9."}, "[6]": {"conditions": "10 mM CaCl2, 0.5M NaCl, 0.5M glycine or 15% (NH4)2SO4, 0 min"}, "[7]": {"conditions": "salt concentration as in column head, 30 min"}, "[8]": {"conditions": "salt concentration as in column head, 60 min"}, "[9]": {"conditions": "salt concentration as in column head, 90 min"}, "[10]": {"conditions": "salt concentration as in column head, 120 min"}, "[11]": {"conditions": "salt concentration as in column head, 180 min"}, "[12]": {"conditions": "pre-incubated 1 h, pH 8.0, 20 mM EDTA, 10 mM Iodoacetate, 1 mM PMSF (in DMSO), DMSO"}, "[13]": {"conditions": "ultrafiltered protease with 20% sugar alcohol, 0 min"}}, "note": "Several values for one entry are separate records, joined by “and”; a condition that tells them apart may be missing. Equal entries are not always repeated. Where two headings read alike, the source gives them in different places."}
{"smiles": "[Cl-].[Cl-].[Mg+2]", "note": "[MgCl2]", "values": [{"measurement": "Relative Activity (%) of protease", "setting": "[1]", "result": 132.24, "unit": "%"}]}
{"smiles": "O=S(=O)([O-])[O-].[Mg+2]", "note": "[MgSO4]", "values": [{"measurement": "Relative Activity (%) of protease", "setting": "[1]", "result": 135.87, "unit": "%"}]}
{"smiles": "[Cl][Mn][Cl]", "note": "[MnCl2]", "values": [{"measurement": "Relative Activity (%) of protease", "setting": "[1]", "result": 104.49, "unit": "%"}]}
{"smiles": "O=S(=O)([O-])[O-].[Mn+2]", "note": "[MnSO4]", "values": [{"measurement": "Relative Activity (%) of protease", "setting": "[1]", "result": 108.39, "unit": "%"}]}
{"smiles": "[Cl-].[Na+]", "note": "[NaCl]", "values": [{"measurement": "Residual Activity (%) of protease at 50° C.", "setting": "[2]; [6]", "result": 100.00, "unit": "%"}, {"measurement": "Residual Activity (%) of protease at 50° C.", "setting": "[2]; [7]", "result": 77.79, "unit": "%"}, {"measurement": "Residual Activity (%) of protease at 50° C.", "setting": "[2]; [8]", "result": 54.11, "unit": "%"}, {"measurement": "Residual Activity (%) of protease at 50° C.", "setting": "[2]; [9]", "result": 49.26, "unit": "%"}, {"measurement": "Residual Activity (%) of protease at 50° C.", "setting": "[2]; [10]", "result": 48.83, "unit": "%"}, {"measurement": "Residual Activity (%) of protease at 50° C.", "setting": "[2]; [11]", "result": 37.44, "unit": "%"}]}
{"smiles": "[Cl][Ni][Cl]", "note": "[NiCl2]", "values": [{"measurement": "Relative Activity (%) of protease", "setting": "[1]", "result": 65.60, "unit": "%"}]}
{"smiles": "O=S(=O)(F)Cc1ccccc1", "note": "[PMSF, phenylmethylsulfonyl fluoride]", "values": [{"measurement": "inhibition of protease", "setting": "[3]; 1 mM PMSF", "result": "completely inhibited"}, {"measurement": "Inhibition (%) PM-10 Retentate", "setting": "[3]; [12]", "result": 79.27, "unit": "%"}, {"measurement": "Inhibition (%) YM-3 Retentate", "setting": "[3]; [12]", "result": 90.24, "unit": "%"}]}
{"smiles": "OC[C@H]1O[C@H](O[C@H]2O[C@H](CO)[C@@H](O)[C@H](O)[C@H]2O)[C@H](O)[C@@H](O)[C@@H]1O", "note": "[Trehalose, trehalose]", "values": [{"measurement": "residual activity of protease at 50° C.", "setting": "[4]; additive 20%, 0 h", "result": 100.00}, {"measurement": "residual activity of protease at 50° C.", "setting": "[4]; additive 20%, 1 h", "result": 78.14}, {"measurement": "residual activity of protease at 50° C.", "setting": "[4]; additive 20%, 2 h", "result": 62.15}, {"measurement": "residual activity of protease at 50° C.", "setting": "[4]; additive 20%, 3 h", "result": 46.12}, {"measurement": "residual activity of protease at 50° C.", "setting": "[4]; additive 20%, 4 h", "result": 39.80}, {"measurement": "residual activity of protease at 50° C.", "setting": "[4]; additive 40%, 0 h", "result": 100.00}, {"measurement": "residual activity of protease at 50° C.", "setting": "[4]; additive 40%, 1 h", "result": 85.27}, {"measurement": "residual activity of protease at 50° C.", "setting": "[4]; additive 40%, 2 h", "result": 75.99}, {"measurement": "residual activity of protease at 50° C.", "setting": "[4]; additive 40%, 3 h", "result": 75.47}, {"measurement": "residual activity of protease at 50° C.", "setting": "[4]; additive 40%, 4 h", "result": 71.11}, {"measurement": "residual activity of protease at 50° C.", "setting": "[4]; additive 50%, 0 h", "result": 100.00}, {"measurement": "residual activity of protease at 50° C.", "setting": "[4]; additive 50%, 1 h", "result": 92.32}, {"measurement": "residual activity of protease at 50° C.", "setting": "[4]; additive 50%, 2 h", "result": 89.98}, {"measurement": "residual activity of protease at 50° C.", "setting": "[4]; additive 50%, 3 h", "result": 85.89}, {"measurement": "residual activity of protease at 50° C.", "setting": "[4]; additive 50%, 4 h", "result": 81.89}, {"measurement": "residual activity of protease at 50° C.", "setting": "[4]; additive 50%, 4 h, listed as trehalose", "result": "~80"}]}
{"smiles": "[Cl-].[Cl-].[Zn+2]", "note": "[ZnCl2]", "values": [{"measurement": "Relative Activity (%) of protease", "setting": "[1]", "result": 60.27, "unit": "%"}]}
{"smiles": "O=S(=O)([O-])[O-].[Zn+2]", "note": "[ZnSO4]", "values": [{"measurement": "Relative Activity (%) of protease", "setting": "[1]", "result": 58.03, "unit": "%"}]}
{"smiles": "OCC(O)CO", "note": "[glycerol]", "values": [{"measurement": "residual activity of protease at 50° C.", "setting": "[5]; 20% sugar alcohol, 30 min", "result": 74.68}, {"measurement": "residual activity of protease at 50° C.", "setting": "[5]; 20% sugar alcohol, 60 min", "result": 62.01}, {"measurement": "residual activity of protease at 50° C.", "setting": "[5]; 20% sugar alcohol, 90 min", "result": 49.08}, {"measurement": "residual activity of protease at 50° C.", "setting": "[5]; 20% sugar alcohol, 120 min", "result": 36.97}, {"measurement": "residual activity of protease at 50° C.", "setting": "[5]; 20% sugar alcohol, 180 min", "result": 31.73}, {"measurement": "residual activity of protease at 50° C.", "setting": "[5]; [13]", "result": 100}]}
{"smiles": "NCC(=O)O", "note": "[glycine]", "values": [{"measurement": "Residual Activity (%) of protease at 50° C.", "setting": "[2]; [6]", "result": 100.00, "unit": "%"}, {"measurement": "Residual Activity (%) of protease at 50° C.", "setting": "[2]; [7]", "result": 74.85, "unit": "%"}, {"measurement": "Residual Activity (%) of protease at 50° C.", "setting": "[2]; [8]", "result": 54.19, "unit": "%"}, {"measurement": "Residual Activity (%) of protease at 50° C.", "setting": "[2]; [9]", "result": 43.16, "unit": "%"}, {"measurement": "Residual Activity (%) of protease at 50° C.", "setting": "[2]; [10]", "result": 39.89, "unit": "%"}, {"measurement": "Residual Activity (%) of protease at 50° C.", "setting": "[2]; [11]", "result": 31.62, "unit": "%"}]}
{"smiles": "OC[C@@H](O)[C@@H](O)[C@H](O)[C@@H](O)CO", "note": "[sorbitol]", "values": [{"measurement": "residual activity of protease at 50° C.", "setting": "[4]; additive 20%, 0 h", "result": 100.0}, {"measurement": "residual activity of protease at 50° C.", "setting": "[4]; additive 20%, 1 h", "result": 77.28}, {"measurement": "residual activity of protease at 50° C.", "setting": "[4]; additive 20%, 2 h", "result": 49.25}, {"measurement": "residual activity of protease at 50° C.", "setting": "[4]; additive 20%, 3 h", "result": 42.99}, {"measurement": "residual activity of protease at 50° C.", "setting": "[4]; additive 20%, 4 h", "result": 33.11}, {"measurement": "residual activity of protease at 50° C.", "setting": "[4]; additive 40%, 0 h", "result": 100.0}, {"measurement": "residual activity of protease at 50° C.", "setting": "[4]; additive 40%, 1 h", "result": 87.00}, {"measurement": "residual activity of protease at 50° C.", "setting": "[4]; additive 40%, 2 h", "result": 70.69}, {"measurement": "residual activity of protease at 50° C.", "setting": "[4]; additive 40%, 3 h", "result": 61.54}, {"measurement": "residual activity of protease at 50° C.", "setting": "[4]; additive 40%, 4 h", "result": 58.57}, {"measurement": "residual activity of protease at 50° C.", "setting": "[4]; additive 50%, 0 h", "result": 100.0}, {"measurement": "residual activity of protease at 50° C.", "setting": "[4]; additive 50%, 1 h", "result": 91.31}, {"measurement": "residual activity of protease at 50° C.", "setting": "[4]; additive 50%, 2 h", "result": 88.44}, {"measurement": "residual activity of protease at 50° C.", "setting": "[4]; additive 50%, 3 h", "result": 79.44}, {"measurement": "residual activity of protease at 50° C.", "setting": "[4]; additive 50%, 4 h", "result": "~80"}, {"measurement": "residual activity of protease at 50° C.", "setting": "[4]; additive 50%, 4 h, listed as Sorbitol", "result": 78.25}, {"measurement": "residual activity of protease at 50° C.", "setting": "[5]; 20% sugar alcohol, 30 min", "result": 84.01}, {"measurement": "residual activity of protease at 50° C.", "setting": "[5]; 20% sugar alcohol, 60 min", "result": 70.66}, {"measurement": "residual activity of protease at 50° C.", "setting": "[5]; 20% sugar alcohol, 90 min", "result": 62.31}, {"measurement": "residual activity of protease at 50° C.", "setting": "[5]; 20% sugar alcohol, 120 min", "result": 51.57}, {"measurement": "residual activity of protease at 50° C.", "setting": "[5]; 20% sugar alcohol, 180 min", "result": "47 and 47.11"}, {"measurement": "residual activity of protease at 50° C.", "setting": "[5]; [13]", "result": 100}]}
{"smiles": "OC[C@@H](O)[C@H](O)[C@@H](O)CO", "note": "[xylitol]", "values": [{"measurement": "residual activity of protease at 50° C.", "setting": "[5]; 20% sugar alcohol, 30 min", "result": 76.31}, {"measurement": "residual activity of protease at 50° C.", "setting": "[5]; 20% sugar alcohol, 60 min", "result": 63.36}, {"measurement": "residual activity of protease at 50° C.", "setting": "[5]; 20% sugar alcohol, 90 min", "result": 52.42}, {"measurement": "residual activity of protease at 50° C.", "setting": "[5]; 20% sugar alcohol, 120 min", "result": 44.61}, {"measurement": "residual activity of protease at 50° C.", "setting": "[5]; 20% sugar alcohol, 180 min", "result": 39.25}, {"measurement": "residual activity of protease at 50° C.", "setting": "[5]; [13]", "result": 100}]}
